pIC50: −log10 of the molar value.
Tests used:
[1] = target: HCV replicon; test: HCV replicon assay (luciferase); type: cell-based, Hepatitis C virus (HCV); details: 5-2 Luc replicon cells, 24 hours with compound, luciferase emission; first symbol of Replicon/Western
Text: In one embodiment, the inhibitory activity of the compounds can be confirmed in a replicon assay that assesses the ability of a test compound to block or inhibit HCV replication in replicon cells. One example of a suitable replicon assay is the liver cell-line Huh 7-based replicon assay described in Lohmann et al., 1999, Science 285:110-113. A specific example of this replicon assay which utilizes luciferase translation is provided in the Examples Section. In one embodiment of this assay, the amount of test compound that yields a 50% reduction in translation as compared to a control cell (IC50) may be determined.
The inhibitory activity of certain exemplary compounds of the invention was confirmed using an HCV replicon assay. The HCV replicon can include such features as the HCV 5′ untranslated region including the HCV IRES, the HCV 3′ untranslated region, selected HCV genes encoding HCV polypeptides, selectable markers, and a reporter gene such as luciferase, GFP, etc. In the assay, actively dividing 5-2 Luc replicon-comprising cells (obtained from Rolf Bartenschlager; see Lohmann et al., 1999, Science 285:110-113) were seeded at a density of between about 5,000 and 7,500 cells/well onto 96 well plates (about 90 μl of cells per well) and incubated at 37° C. and 5% CO2 for 24 hours. Then, the test compound (in a volume of about 10 μl) was added to the wells at various concentrations and the cells were incubated for an additional 24 hours before luciferase assay. The media was aspirated from each well and Bright-Glo (Promega, Madison, Wis.) luciferase assay reagents were added to each well according to the manufacturer's instructions. Briefly, the Bright-Glo reagent was diluted 1:1 with PBS and 100 μl of diluted reagent was added to each well. After 5 min of incubation at room temperature, luciferin emission was quantified with a luminometer. In this assay, the amount of test compound that yielded a 50% reduction in luciferase emission (IC50) was determined.

[2] = system: HCV nonstructural protein NS5A; test: Quantitative Western blot assay; type: cell-based, Hepatitis C virus (HCV); details: 9-13 replicon cells, 48 hours with compound, second symbol of Replicon/Western
Experimental: Alternatively, the inhibitory activity of the compounds can be confirmed using a quantitative Western immunoblot assay utilizing antibodies specific for HCV non-structural proteins, such as NS3, NS4A NS5A and NS5B. In one embodiment of this assay, replicon cells are treated with varying concentrations of test compound to determine the concentration of test compound that yields a 50% reduction in the amount of a non-structural protein produced as compared to a control sample (IC50). A single non-structural protein may be quantified or multiple non-structural proteins may be quantified. Antibodies suitable for carrying out such immunoblot assays are available commercially (e.g., from BIODESIGN International, Saco, Me.).
Certain exemplary compounds of the invention were also tested for their ability to inhibit HCV replication using a quantitative Western blot analysis with antibodies specific for the HCV nonstructural protein NS5A. Actively dividing 9-13 replicon cells were seeded into 6-well plates at a density of 1×10^5 cells/well in a volume of 2 ml/well and incubated at 37° C. and 5% CO2 for 24 hours. Various concentrations of test compounds (in a volume of 10 ul) were added to the wells and the cells incubated for another 48 hours. Protein samples were prepared from the cultured cells, resolved on a SDS-PAGE gel and transferred to a nitrocellulose membrane. The membrane was blocked with 5% non-fat milk in PBS for 1 hour at room temperature. Primary antibody (anti NS5A antibody; BIODESIGN International, Saco, Me.) incubation was performed for 1 hour at room temperature, after which the membrane was washed 3 times (for 15 min per time) with PBST (PBS plus 0.1% Tween 20). Horseradish peroxidase conjugated secondary antibody incubation was performed for 1 hour at room temperature and the membrane was washed 3 times (for 15 min per time) with PBST. The membrane was then soaked in substrate solution (Pierce) and exposed to a film or quantified using an imager. In this assay, the amount of test compound that yielded a 50% reduction in the amount of NS5A protein translated as compared to a control sample (IC50) was determined.

[3] = system: HCV virus; test: HCV infection assay; type: cell-based, Hepatitis C virus (HCV); details: hepatocyte cells from a donor, inoculated Day 3, RNA Day 8; read-out: IC50 HCV infection assay (HCV RNA, Taqman)
Text: Alternatively, the inhibitory activity of the compounds may be confirmed in an HCV infection assay, such as the HCV infection assay described in Fournier et al., 1998, J. Gen. Virol. 79(10):2367:2374, the disclosure of which is incorporated herein by reference. In one embodiment of this assay, the amount of test compound that yields a 50% reduction in HCV replication or proliferation as compared to a control cell (IC50) may be determined. The extent of HCV replication may be determined by quantifying the amount of HCV RNA present in HCV infected cells. A specific method for carrying out such an assay is provided in the Examples section.
The activity of Compound 9 was also confirmed in an HCV infection assay. The assay was carried out essentially as described in Fournier et al., 1998, J. Gen. Virol. 79:2367-2374. Briefly, hepatocyte cells from a doner were plated on Day 1. On Day 3, the cells were inoculated with HCV virus and test compound was added. On Day 5, the medium was changed and test compound was added. On Day 7, the medium was changed and test compound was added. On Day 8, the RNA was isolated and the HCV RNA quantified using a Taqman assay.

[4] = Safety studies in rats, subcutaneous and intravenous administration
Experimental: The safety of compound 9 was evaluated in rats by both subcutaneous and intravenous administration in several experiments. […] The experiments performed are summarized below.
In a second study compound 9 was administered by the IV route at doses of 10 and 30 mg/kg in 100% PEG. The volume administered for the 10 mg/kg dose was 0.67 ml/kg/day and volume given the 30 mg/kg group was 2 ml/kg/day. In addition, there were two control groups. One control received 100% PEG alone at a volume of 2 ml/kg/day while the other was an untreated sham control group. […] Parameters of study included: clinical observations, body weights, hematology, clinical chemistry, gross necropsy, organ weights, bone marrow assessment and histopathology of selected organs.
A vehicle control group received the 100% PEG alone at the same volume. Groups comprised 3 males and 3 females each. Before reducing the dose to 10 and 30 mg/kg two rats received 100 mg/kg IV at a volume of 1 ml/kg. […] Parameters of study included: clinical observations, body weights, hematology, clinical chemistry, gross necropsy, organ weights and histopathology of selected organs (including injection sites).

[5] = Toxicokinetic determinations in rats; details: rat
[6] = Pharmacokinetics, plasma levels with liposome suspension vehicles; type: in vivo, rats, monkeys and chimpanzees; details: subcutaneous, liposome suspension vehicles: 5 mg/ml in water with 100 or 200 mg/ml lecithin, or 100 mg/ml lecithin and 5 mg/ml cholesterol
Experimental: The pharmacokinetic properties of compound 9 were calculated in rats, monkeys and chimpanzees using the intravenous and subcutaneous routes of administration with a variety of different delivery vehicles.

[7] = system: 5-2 Luc cells, 9-13 cells or Huh-7 cells; test: Cytotoxicity assay (Cell Titer Glo); details: read-out: IC50 cytotoxicity (number of viable cells), liver cells including an HCV replicon, 24 hr
Experimental: In the assay, cells were seeded onto 96-well plates (approx. 7500 cells/well in a volume of 90 μl) and grown for 24 hr at 37° C. On day 2, various concentrations of test compound (in a volume of 10 μl) were added to the wells and the cells were grown for an additional 24 hr at 37° C. On day 3, an ATP-dependent R-Luciferase assay (Cell Titer Glo assay) was performed to determine the number of viable cells.

| Structure (SMILES) | pIC50 [1] | pIC50 [2] | further results |
| --- | --- | --- | --- |
| O=C(Nc1cccc(-c2cc(-c3cccc(Cl)c3Cl)no2)c1)C(Cl)Cl [Compound 3, 2,2-Dichloro-N-[3-[3-(2,3-dichlorophenyl)-5-isoxazolyl]phenyl] Acetamide] | < 5.00 | ≥ 5.00 | – |
| O=C(Nc1cccc(-c2cc(-c3c(Cl)cccc3Cl)on2)c1)C(Cl)Cl [Compound 5, 2,2-Dichloro-N-[3-[5-(2,6-dichlorophenyl)-3-isoxazolyl]phenyl] Acetamide] | ≥ 5.00 | ≥ 5.00 | – |
| O=C(Nc1cccc(-c2cc(-c3c(Cl)cccc3N3CCOCC3)no2)c1)C(Cl)Cl [Compound 7, 2,2-Dichloro-N-[3-[3-[2-chloro-6-(N-morpholino)phenyl]-5-isoxazolyl]phenyl] Acetamide] | ≥ 5.00 | ≥ 5.00 | – |
| O=C(Nc1cccc(-c2cc(-c3c(Cl)cccc3Cl)no2)c1)C(Cl)Cl [Compound 9, 2,2-Dichloro-N-[3-[3-(2,6-dichlorophenyl)-5-isoxazolyl]phenyl] Acetamide] | ≥ 5.00 | ≥ 5.00 | pIC50 [3]: > 5.00; other findings, second study ([4]; IV 10 and 30 mg/kg, 7 days): no untoward findings; well tolerated dose, first study ([4]; Sprague Dawley rats, SC and IV, dose escalation): ≤ 30 mg/kg; clinical signs at IV 60 mg/kg ([4]; first study, Day 5, IV 60 mg/kg in 100% PEG): immediate clinical signs (collapsing, thrashing, dyspnea and reddish discolored urine) were observed; time for symptoms to abate ([4]; first study, IV 60 mg/kg): ≤ 1 h; NOAEL (no observed adverse effect level) ([4]; rat, IV, 7 days): 30 mg/kg; NOAEL ([4]; rat, intravenous, 14-days): 30 mg/kg; well tolerated dose ([4]; rats, subcutaneous and intravenous): ≤ 30 mg/kg/day; hematology finding at 30 mg/kg ([4]; second study, IV, 100% PEG, 7 days, relative to untreated control but not vehicle control): very slight decreases in red blood cells, hemoglobin and hematocrit; necropsy findings ([4]; third study, IV 10 and 30 mg/kg): no gross or microscopic morphological changes; clinical observations, body weights, hematology, clinical chemistry, organ weights ([4]; third study, IV 10 and 30 mg/kg, versus vehicle control): unaffected by treatment; mortality at 100 mg/kg IV ([4]; third study, two rats, 100 mg/kg IV, 1 ml/kg): Both animals died within a minute or two of dosing; T1/2 ([5]; IV): about 5 minutes; exposure, IV route ([5]; IV): high exposure; persistence of measurable compound ([5]; IV): still apparent after 2 hours; Tmax ([5]; SC): about 30 minutes; exposure, subcutaneous route ([5]; SC): much lower exposure; persistence of exposure ([5]; SC): remains sustained through 2 hours post-dosing; plasma levels [6]: Sustained plasma levels were achieved |
| CSc1cccc(F)c1-c1cc(-c2cccc(NC(=O)C(Cl)Cl)c2)on1 [Compound 11, 2,2-Dichloro-N-[3-[3-(2-fluoro-6-thiomethylphenyl)-5-isoxazolyl]phenyl] Acetamide] | ≥ 5.00 | ≥ 5.00 | – |
| O=C(Nc1ccc(F)c(-c2cc(-c3c(Cl)cccc3Cl)no2)c1)C(Cl)Cl [Compound 13, 2,2-Dichloro-N-[3-[3-(2,6-dichlorophenyl)-5-isoxazolyl]-4-fluorophenyl] Acetamide] | ≥ 5.00 | ≥ 5.00 | – |
| Cc1ccc(F)c(-c2cc(-c3cccc(NC(=O)C(Cl)Cl)c3)on2)c1Cl [Compound 15, 2,2-Dichloro-N-[3-[3-(2-chloro-6-fluoro-3-methylphenyl)-5-isoxazolyl]phenyl] Acetamide] | ≥ 5.00 | ≥ 5.00 | – |
| O=C(Nc1cccc(-c2cc(-c3c(F)cccc3Cl)no2)c1)C(Cl)Cl [Compound 27, 2,2-Dichloro-N-[3-[3-(2-chloro-6-fluorophenyl)-5-isoxazolyl]phenyl] Acetamide] | ≥ 5.00 | ≥ 5.00 | – |
| Cc1cc(C)c(-c2cc(-c3cccc(NC(=O)C(Cl)Cl)c3)on2)c(C)c1 [Compound 69, 2,2-Dichloro-N-[3-[3-(2,4,6-trimethylphenyl)-5-isoxazolyl]phenyl] Acetamide] | ≥ 5.00 | – | pIC50 [7]: 5.52 |
| O=C(Nc1cccc(-c2cc(-c3c(Cl)cc(OCCN4CCOCC4)cc3Cl)no2)c1)C(Cl)Cl [Compound 75, 2,2-Dichloro-N-[3-[3-[2,6-dichloro-4-(N-morpholinoethyleneoxy)phenyl]-5-isoxazolyl]-phenyl] Acetamide] | < 5.00 | ≥ 5.00 | – |
| O=C(CI)Nc1cccc(-c2cc(-c3c(Cl)cccc3Cl)no2)c1 [Compound 101, 2-Iodo-N-[3-[3-(2,6-dichlorophenyl)-5-isoxazolyl]phenyl] Acetamide] | ≥ 5.00 | < 5.00 | – |
| COC(=O)c1ccc(Cl)c(-c2cc(-c3cccc(NC(=O)C(Cl)Cl)c3)on2)c1Cl [Compound 135, 2,2-Dichloro-N-[3-[3-(3-carbomethoxy-2,6-dichlorophenyl)-5-isoxazolyl]phenyl] Acetamide] | < 5.00 | < 5.00 | – |
| Cc1cccc(-c2cc(-c3cccc(NC(=O)C(Cl)Cl)c3)on2)c1C [Compound 163, 2,2-Dichloro-N-[3-[3-(2,3-dimethylphenyl)-5-isoxazolyl]phenyl] Acetamide] | < 5.00 | < 5.00 | – |
